Assay results published in patent US11026972B2, “Methods for generating macrophages with enhanced cancer phagocytosis” (Georgia State University Research Foundation, Inc., priority 2016, dated 2021).

B1: IL-17: recombinant murine cytokine interleukin IL-17 (also known as IL-17A), PeproTech (protein, UniProt Q62386 26-158, looked up)
Interleukin-17A: AAIIPQSSACPNTEAKDFLQNVKVNLKVFNSLGAKVSSRRPSDYLNRSTSPWTLHRNEDPDRYPSVIWEAQCRHQRCVNAEGKLDHHMNSVLIQQEILVLKREPESCPFTFRVEKMLVGVGCTCVASIVRQAA

Tested on: splenic macrophages, PEMs and BMDMs
Assay: Ex vivo macrophage phagocytosis toward RBCs and other self-cells after activation
Format: cell-based, mouse
Settings: for conversion to potent phagocytes toward self: PEMs and BMDMs from WT and mutant mice; for phagocytosis toward CD47^− RBCs of culture-retarded WT spleen macrophages: after 2 days of culturing; for phagocytosis toward RBCs: splenic macrophages from SIRPα^−/− or CD47^−/− mice
Procedure, shortened: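 Mouse splenic or peritoneal macrophages (2 h adherent selection) or BMDMs (M-CSF ~10 ng/ml, 5-6 days) were co-incubated 30 min at 37 °C with CFSE-labelled RBCs (1:5-10) or other cells (1:1-2). Uptake was scored by fluorescence microscopy and/or FACS with anti-F4/80 or anti-CD11b macrophage labelling.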

Row | Molecule | conversion to potent phagocytes toward self | phagocytosis of other cell types (activated macrophages, CD47-SIRPα-controllable manner) | phagocytosis toward CD47^− RBCs of culture-retarded WT spleen macrophages | phagocytosis toward RBCs
1 | lipopolysaccharide [LPS] | converted all PEMs and BMDMs | capable of phagocytizing murine splenocytes, B16 melanoma cells, and EL4 lymphoblasts | dramatically rekindled | rapidly induced their phagocytosis toward RBCs
2 | B1 | converted all PEMs and BMDMs |  | dramatically rekindled | rapidly induced their phagocytosis toward RBCs
